Patent EP1203771A1, “REMEDIES OR PREVENTIVES FOR FREQUENT URINATION OR URINARY INCONTINENCE” (TORAY INDUSTRIES, INC., priority 1999, dated 2001)
Structures can show the parent of a compound that is named as a salt.

Tested on: Rhythmic Bladder Contraction of Rats
Experiment: Effect on rhythmic bladder contraction of rats (urethane-anesthetized, saline infusion into bladder, intravesical pressure)
Assay type: in vivo
Settings: anesthetized female SD rats
Description: Effect on Rhythmic Bladder Contraction of Rats
Female SD rats were anesthetized with an intraperitoneal injection of urethane (1.0 g/kg). A polyethylene tube was inserted from urethral opening to the bladder and the tube was fixed by ligating. Physiological saline was appropriately infused via the tube (rate of infusion: about 0.2 ml/min; maximum dose: about 1.5 ml/rat) to induce rhythmic contraction of bladder. The rhythmic contraction of bladder was monitored by measuring the intravesical pressure through the polyethylene tube inserted into the bladder. After confirming that stable rhythmic contraction occurred at least 10 times, each test compound was intravenously administered at a doseof 1 ml/kg. If the intravesical pressure became, within 10 minutes from the administration of the test compound, not more than 50% of the intravesical pressure at the time point immediately after the administration of the test compound, it was judged that […], and the time period until the intravesical pressure again became not less than 50% was defined as the rhythmic bladder contraction-inhibiting time. As the solvent for administration of the test compounds, 5% xylitol was used for test Compounds 1, 2, 3, 4, 5, 11, 12, 21, 23 and 24; physiological saline was used for test Compounds 6, 9, 10, 13, 14, 15, 16, 17, 18, 19, 20 and 22; 10% ethanol solution was used for test Compound 7; and 10% DMSO solution was used for test Compound 8. The solvents 5% xylitol solution, 10% ethanol solution and 10% DMSO solution, each of which is said to somewhat influence on the rhythmic bladder contraction-inhibiting time, were also tested at the dose of 1 ml/kg. […]

[1] = 30 mg/kg intravenously, solvent 5% xylitol
[2] = 10 mg/kg intravenously, solvent 5% xylitol
[3] = 3 mg/kg intravenously, solvent physiological saline
[4] = 1 mg/kg intravenously, solvent physiological saline
[5] = 10 mg/kg intravenously, solvent physiological saline

## O=C1Nc2c3c(nc4cccc1c24)[C@@H]1Oc2c(O)ccc4c2[C@@]12CCN(CC1CC1)[C@H](C4)[C@]2(O)C3 [Compound 1, 17-cyclopropylmethyl-6,7-dehydro-4,5α-epoxy-3,14β-dihydroxy-6,7,2',3'-[4',5'-[imino(oxomethano)]quinolino]morphinan hydrochloric acid salt]
[1]
  Mean Rhythmic Bladder Contraction-inhibiting Time: 6.2 min

## CN1CC[C@]23c4c5ccc(O)c4O[C@H]2c2nc4ccccc4c(N)c2C[C@@]3(O)[C@H]1C5 [Compound 2, 17-methyl-6,7-dehydro-4,5α-epoxy-3,14β-dihydroxy-6,7,2',3'-(4'-aminoquinolino)morphinan methanesulfonic acid salt]
[2]
  Mean Rhythmic Bladder Contraction-inhibiting Time: 4.5 min

## Oc1ccc2c3c1O[C@H]1c4nc5c(cc4C[C@@]4(O)[C@@H](C2)N(CC2CC2)CC[C@]314)cc1c2c(cccc25)CC1 [Compound 3, 17-cyclopropylmethyl-6,7-dehydro-4,5α-epoxy-3,14β-dihydroxy-6,7,2',3'-(6',6"-ethano-7',8'-benzoquinolino)morphinan methanesulfonic acid salt]
20 mg/kg intravenously, solvent 5% xylitol
  Mean Rhythmic Bladder Contraction-inhibiting Time: 5.0 min

## Cc1c2c(nc3ccccc13)[C@@H]1Oc3c(O)ccc4c3[C@@]13CCN(C)[C@H](C4)[C@]3(O)C2 [Compound 4, 17-methyl-6,7-dehydro-4,5α-epoxy-3,14β-dihydroxy-6,7,2',3'-(4'-methylquinolino)morphinan methanesulfonic acid salt]
[2]
  Mean Rhythmic Bladder Contraction-inhibiting Time: 13.9 min

## CN1CC[C@]23c4c5ccc(O)c4O[C@H]2c2nc4ccccc4c(O)c2C[C@@]3(O)[C@H]1C5 [Compound 5, 17-methyl-6,7-dehydro-4,5α-epoxy-3,14β-dihydroxy-6,7,2',3'-(4'-hydroxyquinolino)morphinan methanesulfonic acid salt]
[1]
  Mean Rhythmic Bladder Contraction-inhibiting Time: 5.7 min

## CN1CC[C@]23c4c5ccc(O)c4O[C@H]2c2nc4ccccc4cc2C[C@@]3(O)[C@H]1C5 [Compound 6, 17-methyl-6,7-dehydro-4,5α-epoxy-3,14β-dihydroxy-6,7,2',3'-quinolinomorphinane methanesulfonic acid salt]
[3]
  Mean Rhythmic Bladder Contraction-inhibiting Time: 24.1 min

## Oc1ccc2c3c1O[C@H]1c4nc5ccccc5cc4C[C@@]4(O)[C@@H](C2)N(CCc2ccccc2)CC[C@]314 [Compound 7, 17-phenethyl-6,7-dehydro-4,5 α-epoxy-3,14β-dihydroxy-6,7,2',3'-quinolinomorphinan methanesulfonic acid salt]
5 mg/kg intravenously, solvent 10% ethanol solution
  Mean Rhythmic Bladder Contraction-inhibiting Time: 17.1 min

## Oc1ccc2c3c1O[C@H]1c4nc5ccccc5cc4C[C@@]4(O)[C@@H](C2)N(CCc2cccs2)CC[C@]314 [Compound 8, 17-(2-thienyl)ethyl-6,7-dehydro-4,5α-epoxy-3,14β-dihydroxy-6,7,2',3'-quinolinomorphinan methanesulfonic acid salt]
10 mg/kg intravenously, solvent 10% DMSO solution
  Mean Rhythmic Bladder Contraction-inhibiting Time: 19.5 min

## CO[C@@]12Cc3cc4ccccc4nc3[C@@H]3Oc4c(O)ccc5c4[C@@]31CCN(C)[C@@H]2C5 [Compound 9, 17-methyl-6,7-dehydro-4,5 α-epoxy-3-hydroxy-14 β -methoxy-6,7,2',3'-quinolinomorphinan methanesulfonic acid salt]
[4]
  Mean Rhythmic Bladder Contraction-inhibiting Time: 7.3 min

## CN1CC[C@]23c4c5ccc(O)c4O[C@H]2c2nc4c(Cl)cccc4cc2C[C@@]3(O)[C@H]1C5 [Compound 10, 17-methyl-6,7-dehydro-4,5α-epoxy-3,14β-dihydroxy-6,7,2',3'-(8'-chloroquinolino)morphinan methanesulfonic acid salt]
[5]
  Mean Rhythmic Bladder Contraction-inhibiting Time: 7.4 min

## CN1CC[C@]23c4c5ccc(O)c4O[C@H]2c2nc4ccc(Cl)cc4cc2C[C@@]3(O)[C@H]1C5 [Compound 11, 17-methyl-6,7-dehydro-4,5α-epoxy-3,14β-dihydroxy-6,7,2',3'-(6'-chloroquinolino)morphinan methanesulfonic acid salt]
[2]
  Mean Rhythmic Bladder Contraction-inhibiting Time: 12.4 min

## CN1CC[C@]23c4c5ccc(O)c4O[C@H]2c2nc4cccc(Cl)c4cc2C[C@@]3(O)[C@H]1C5 [Compound 12, 17-methyl-6,7-dehydro-4,5α-epoxy-3,14β-dihydroxy-6,7,2',3'-(5'-chloroquinolino)morphinan tartaric acid salt]
0.3 mg/kg intravenously, solvent 5% xylitol
  Mean Rhythmic Bladder Contraction-inhibiting Time: 14.6 min

## Cc1cccc2cc3c(nc12)[C@@H]1Oc2c(O)ccc4c2[C@@]12CCN(C)[C@H](C4)[C@]2(O)C3 [Compound 13, 17-methyl-6,7-dehydro-4,5α-epoxy-3,14β-dihydroxy-6,7,2',3'-(8'-methylquinolino)morphinan methanesulfonic acid salt]
[4]
  Mean Rhythmic Bladder Contraction-inhibiting Time: 6.5 min

## Cc1ccc2nc3c(cc2c1)C[C@@]1(O)[C@H]2Cc4ccc(O)c5c4[C@@]1(CCN2C)[C@H]3O5 [Compound 14, 17-methyl-6,7-dehydro-4,5α-epoxy-3,14β-dihydroxy-6,7,2',3'-(6'-methylquinolino)morphinan methanesulfonic acid salt]
[3]
  Mean Rhythmic Bladder Contraction-inhibiting Time: 12.3 min

## CN1CC[C@]23c4c5ccc(O)c4O[C@H]2c2nc4c(F)cccc4cc2C[C@@]3(O)[C@H]1C5 [Compound 15, 17-methyl-6,7-dehydro-4,5α-epoxy-3,14β-dihydroxy-6,7,2',3'-(8'-fluoroquinolino)morphinan tartaric acid salt]
[4]
  Mean Rhythmic Bladder Contraction-inhibiting Time: 10.7 min

## CC(=O)Oc1ccc2c3c1O[C@H]1c4nc5ccccc5cc4C[C@@]4(OC(C)=O)[C@@H](C2)N(C)CC[C@]314 [Compound 16, 17-methyl-6,7-dehydro-4,5α-epoxy-3,14β-diacetoxy-6,7,2',3'-quinolinomorphinan tartaric acid salt]
0.3 mg/kg intravenously, solvent physiological saline
  Mean Rhythmic Bladder Contraction-inhibiting Time: 15.0 min

## CC(=O)O[C@@]12Cc3cc4ccccc4nc3[C@@H]3Oc4c(O)ccc5c4[C@@]31CCN(C)[C@@H]2C5 [Compound 17, 17-methyl-6,7-dehydro-4,5α-epoxy-3-hydroxy-14β-acetoxy-6,7,2',3'-quinolinomorphinan tartaric acid salt]
[4]
  Mean Rhythmic Bladder Contraction-inhibiting Time: 7.4 min

## CC(=O)Oc1ccc2c3c1O[C@H]1c4nc5ccccc5cc4C[C@@]4(O)[C@@H](C2)N(C)CC[C@]314 [Compound 18, 17-methyl-6,7-dehydro-4,5α-epoxy-3-acetoxy-14β-hydroxy-6,7,2',3'-quinolinomorphinane tartaric acid salt]
[4]
  Mean Rhythmic Bladder Contraction-inhibiting Time: 6.6 min

## COc1ccc2c3c1O[C@H]1c4nc5ccccc5cc4C[C@@]4(O)[C@@H](C2)N(C)CC[C@]314 [Compound 19, 17-methyl-6,7-dehydro-4,5α-epoxy-3-methoxy-14β-hydroxy-6,7,2',3'-quinolinomorphinan tartaric acid salt]
[4]
  Mean Rhythmic Bladder Contraction-inhibiting Time: 7.7 min

## CN1CC[C@]23c4c5cccc4O[C@H]2c2nc4ccccc4cc2C[C@@]3(O)[C@H]1C5 [Compound 20, 17-methyl-6,7-dehydro-4,5α-epoxy-14β-hydroxy-6,7,2',3'-quinolinomorphinan tartaric acid salt]
[4]
  Mean Rhythmic Bladder Contraction-inhibiting Time: 11.1 min

## Oc1ccc2c3c1O[C@H]1c4nc5ccccc5cc4C[C@@]4(O)[C@@H](C2)N(CC2CC2)CC[C@]314 [Compound 21, 17-cyclopropylmethyl-6,7-dehydro-4,5α-epoxy-3,14β-dihydroxy-6,7,2',3'-quinolinomorphinan methanesulfonic acid salt]
[2]
  Mean Rhythmic Bladder Contraction-inhibiting Time: 10.0 min

## C=CCN1CC[C@]23c4c5ccc(O)c4O[C@H]2c2nc4ccccc4cc2C[C@@]3(O)[C@H]1C5 [Compound 22, 17-allyl-6,7-dehydro-4,5α-epoxy-3,14β-dihydroxy-6,7,2',3'-quinolinomorphinan methanesulfonic acid salt]
[5]
  Mean Rhythmic Bladder Contraction-inhibiting Time: 1.4 min

## Cc1ccc(CCN2CC[C@]34c5c6ccc(O)c5O[C@H]3c3nc5ccccc5cc3C[C@@]4(O)[C@H]2C6)cc1 [Compound 23, 17-(4-methylphenyl)ethyl-6,7-dehydro-4,5α-epoxy-3,14β-dihydroxy-6,7,2',3'-quinolinomorphinan methanesulfonic acid salt]
[2]
  Mean Rhythmic Bladder Contraction-inhibiting Time: 9.2 min

## Oc1ccc2c3c1O[C@H]1c4nc5ccccc5cc4C[C@@]4(O)[C@@H](C2)N(CCc2ccc(F)cc2)CC[C@]314 [Compound 24, 17-(4-fluorophenyl)ethyl-6,7-dehydro-4,5α-epoxy-3,14β-dihydroxy-6,7,2',3'-quinolinomorphinan methanesulfonic acid salt]
[2]
  Mean Rhythmic Bladder Contraction-inhibiting Time: 2.3 min
